Source: publication PMC5756575, “In Vitro Biotransformation, Safety, and Chemopreventive Action of Novel 8-Methoxy-Purine-2,6-Dione Derivatives” (Applied Biochemistry and Biotechnology, 2017)
“Also recorded” adds a separate entry of the source. Where two headings read alike, the source gives them in different places.

Experiments:
[1] = system: Cunninghamella echinulata NRRL 1384; assay: Cunninghamella biotransformation assay, C. echinulata; format: in vitro ADME; details: 0.5 mg/mL, 7-day incubation, LC-MS/MS
Method: (§1) Three different strains of Cunninghamella were used: Cunninghamella echinulata NRRL 1384, Cunninghamella blakesleeana 1908 DMS, and Cunninghamella elegans 1906 DMS. The first was provided by Dr. A.J. Carnell (University of Liverpool, UK), whereas the two remaining were purchased from Deutsche Sammlung von Mikroorganismen und Zellkulturen GmbH (DMSZ, Braunschweig, Germany).
(§2) Cunninghamella strains were cultivated on solid potato dextrose agar (PDA) plates at 28 °C. After 4 days, a liquid fermentation basal medium was prepared by the addition of 6 g of D-glucose, 1.5 g of NaCl, 1.5 g of yeast extract from Saccharomyces cerevisiae, and 1.5 g of K2HPO4 to 300 mL of distilled water. Aliquots of 24.5 mL of medium were inoculated with 300 μL of suspension of fungal spores obtained after wetting colonies in PDA. The fungi were incubated with shaking until the formation of spherical clumps.
(§3) Compounds 2–4 were evaluated in this experiment. Once microorganisms formed spherical clumps in the preliminary incubation, the corresponding tested compound was added to the broth and the mixture was incubated for 7 days. Two control experiments were also performed, in the absence of compound and fungus, respectively. Biotransformation progress was monitored by TLC and by liquid chromatography electrospray ionization-tandem mass spectrometry (LC-MS/MS). Monitoring was performed at four different incubation times: 30 min, 3 days, 5 days, and 7 days.
(§4) To analyze metabolites in LC-MS/MS, an aliquot of 500 μL of filtered sample was taken and extracted with 500 μL of dichloromethane. The organic fraction was dried with sodium sulfate, filtered, and evaporated. The obtained residue was analyzed in LC-MS/MS. At the end of experiment, all the remaining medium was extracted with 25 mL of dichloromethane after separating the fungal clumps by filtration over cellulose filters.
(§5) Agilent 1100 HPLC system (Agilent Technologies, Waldbronn, Germany) equipped with a Xbridge™ C18 analytical column (2.1 × 30 mm, […]; Waters, Dublin, Ireland) was used in the chromatographic separation of LC-MS/MS analysis. An elution gradient of acetonitrile and water, with 0.1% of formic acid, was used as a mobile phase. MS spectra were taken at Applied Biosystems MDS Sciex API 200 triple quadrupole mass analyzer (Concord, Ontario, Canada) with an electrospray ionization (ESI) interface between HPLC and MS.

[2] = system: Cunninghamella blakesleeana 1908 DMS; assay: Cunninghamella biotransformation assay, C. blakesleeana; format: in vitro ADME; details: 0.5 mg/mL, 7-day incubation, LC-MS/MS
Method: as §1, §2, §3, §4, §5

[3] = system: Cunninghamella elegans 1906 DMS; assay: Cunninghamella biotransformation assay, C. elegans; format: in vitro ADME; details: 0.5 mg/mL, 7-day incubation, LC-MS/MS
Method: as §1, §2, §3, §4, §5

Vibrio harveyi BB7XM [4] = format: cell-based; details: compound 40 ng/mL + NQNO 40 ng/mL
Text: (§6) Four Vibrio harveyi strains were used in this study: a wild-type BB7 (naturally found in the Baltic Sea) and three genetically modified strains, namely BB7M (obtained by the introduction of pAB1273 plasmid containing the genes mucA and mucB to enhance the error-prone DNA repair), BB7X (hypersensitive to UV radiation after genetic modification with Tn5TpMCS), and BB7XM (containing the two abovementioned modifications). These strains were kindly provided by Prof. G. Węgrzyn (Department of Molecular Biology, University of Gdańsk, Poland).
(§7) It causes point mutations at the genome as it induces G:C → A:T transitions in Vibrio harveyi strains and in other bacteria such as Escherichia coli and S. typhimurium. […] Next, its working solution was prepared in sterile water, being 40 ng/mL its final concentration.
(§8) Procedure followed in the V. harveyi antimutagenicity assay was similar to the mutagenicity method described before. […] The results were expressed as the inhibition percentage of mutagenic effect, which was calculated with the formula: 100 − [(R 1/R 2) × 100], where R 1 is the number of revertants per plate in the presence of both mutagen and tested substance, and R 2 is the number of revertants per plate in the presence of mutagen. […] S. typhimurium antimutagenicity assay was based on similar assumptions as the V. harveyi antimutagenicity test. In this case, the chemopreventive activity was determined at two concentrations of a tested compounds and a standard mutagen, i.e., 40 and 500 ng/mL.

[5] = system: Salmonella typhimurium TA100; assay: Ames mutagenicity test; format: cell-based
Method: From them, 0.2 mM working solutions were prepared by dilution with water. […]
(§9) In the Ames test, Salmonella typhimurium TA100 strain was used. This strain has a base-pair substitution that can be reverted by mutations at GC pairs. In addition, it contains mutations at uvrB-bio and rfa genes to eliminate excision repair mechanisms and to make the bacteria more permeable to chemicals, respectively. Finally, TA100 also includes pKM101 plasmid, which enhances both chemical and UV-induced mutagenesis via an increase in the error-prone recombinational DNA repair pathway. TA100 strain of S. typhimurium was provided by Dr. T. Nohmi (Division of Genetics and Mutagenesis, National Institute of Hygienic Sciences, Tokyo, Japan). V. harveyi and S. typhimurium bacterial cultures were maintained at 30 and 37 °C, respectively.
It causes point mutations at the genome as it induces G:C → A:T transitions in Vibrio harveyi strains and in other bacteria such as Escherichia coli and S. typhimurium. […]
S. typhimurium was cultivated in a fresh medium 12 h prior to a test. To perform mutagenicity assay, 100 μL of an overnight culture (containing approx. 1 × 10^8 to 2 × 10^8 bacteria) were inoculated along with 50 μL of a tested compound in 2 mL of top agar supplemented with traces of histidine and of biotin. Then the mixture was added over the surface of GM agar plates and was left incubating 48 h at 37 °C. Afterwards, the colonies were counted manually.

Vibrio harveyi BB7 [6] = details: BB7, 40 ng/mL
Method: (§10) From them, 0.2 mM working solutions were prepared by dilution with water. […] Working solutions were prepared by 1:100 dilution of stock solution in water, and final compound concentration assayed was 40 ng/mL.
as §6, §7
(§11) To perform the V. harveyi mutagenicity test, 10 μL of a working solution of the tested compound (100 μg/mL) were added to V. harveyi bacterial culture (OD600 = 0.1) in NaCl-containing BOSS liquid medium, being 40 ng/mL the final concentration of the tested compound. […] Then, an inoculum containing 5 × 10^6 cells was added to solid BOSS agar plate supplemented with neomycin sulfate at a final concentration of 100 μg/mL. Samples were left incubating 48 h at 30 °C, and revertant colonies were counted manually.

Vibrio harveyi BB7X [7] = details: 40 ng/mL
Method: as §10, §6, §7, §11

Vibrio harveyi BB7M [8] = details: 40 ng/mL
Method: as §10, §6, §7, §11

Vibrio harveyi BB7X [9] = assay: Vibrio harveyi antimutagenicity assay against NQNO, BB7X; format: cell-based; details: compound 40 ng/mL + NQNO 40 ng/mL
Text: as §6, §7, §8

Vibrio harveyi BB7XM [10] = assay: Vibrio harveyi mutagenicity assay, BB7XM; format: cell-based; details: 40 ng/mL
Method: as §10, §6, §7, §11

Vibrio harveyi BB7M [11] = assay: Vibrio harveyi antimutagenicity assay against NQNO, BB7M; format: cell-based; details: compound 40 ng/mL + NQNO 40 ng/mL
Text: as §6, §7, §8

[12] = system: Salmonella typhimurium TA100; assay: S. typhimurium antimutagenicity assay against NQNO; format: cell-based; details: for Number of revertants per plate, Mean ± SD: antimutagenicity, NQNO line = NQNO as a single compound
Text: as §9, §7, §8

Cunninghamella strains = assay: Cunninghamella biotransformation assay, three strains together and blank without fungus; format: in vitro ADME; details: three strains, LC-MS/MS
Method: as §1, §2, §3, §4
Agilent 1100 HPLC system (Agilent Technologies, Waldbronn, Germany) equipped with a Xbridge™ C18 analytical column (2.1 × 30 mm, […]; Waters, Dublin, Ireland) was used in the chromatographic separation of LC-MS/MS analysis. […]

Vibrio harveyi BB7 [13] = assay: Vibrio harveyi antimutagenicity assay against NQNO, BB7; format: cell-based
Text: as §6, §7, §8

rat liver microsomes = assay: Microsomal stability assay; format: in vitro ADME; details: rat microsomal biotransformation after 30 min of incubation
Method: Compounds 1 and 3 were studied in a biotransformation assay using rat liver microsomes following procedures described previously. The reagents used in this assay were levallorphan (internal standard) and NADPH-regenerating system, which contained phosphate buffer (pH 7.4), NADP^+, glucose-6-phosphate, and glucose-6-phosphate dehydrogenase. The final protein concentration in the assay was 0.4 mg/mL. Compounds 1 and 3 were tested at a final concentration of 20 μM.
The amount of a parental compound remaining in a solution after biotransformation was monitored using LC-MS/MS as described previously in “Cunninghamella Biotransformation Assay.” Graphs representing ln of percentage of parent compound remaining versus incubation time were drawn to calculate in vitro half-time (t1/2) from the slope of linear regression. To obtain intrinsic clearance (Clint) of a tested compound in rat liver microsomal assay, t1/2 previously calculated was substituted at the equation Clint = [(Vmic/Pmic) × 0.693/t1/2], being Vmic and Pmic the volume of incubation in microliters and the amount of incubated protein in milligrams, respectively.
as §5

[14] = antimutagenicity, NQNO line = NQNO as a single compound
[15] = TA100, 500 ng/mL (NQNO control stated as 40 ng/mL in method)
[16] = TA100, compound and NQNO 40 ng/mL
[17] = TA100, compound and NQNO 500 ng/mL

COc1nc2c(c(=O)n(C)c(=O)n2C)n1CCCC(=O)NCc1cccc(O)c1 [3-M3]
% of compound/metabolite in C. echinulata [1]: 0.3%

COc1nc2c(c(=O)n(C)c(=O)n2C)n1CCCC(=O)N1CCN(c2ccc(O)cc2)CC1 [4-M1]
% of compound/metabolite in C. blakesleeana [2]: 66.6%
% of compound/metabolite in C. elegans [3]: 53.0%
% of compound/metabolite in C. echinulata [1]: 87.6%

COC(=O)Cn1c(OC)nc2c1c(=O)n(C)c(=O)n2C [Compound 2, methyl 2-(8-methoxy-1,3-dimethyl-2,6-dioxo-purin-7-yl)acetate]
Number of revertants per plate, Mean ± SD (Vibrio harveyi BB7XM [4]; [14]): 68 ± 8
% inhibition of NQNO mutagenicity (Vibrio harveyi BB7XM [4]): 12%
Number of revertants per plate, Mean ± SD ([5]; TA100, 40 ng/mL): 10 ± 3
MI (mutagenicity index) ([5]; TA100, 40 ng/mL, mutagenic if MI >2.0): 0.3
MI (mutagenicity index) [5, 15]: 0.5
Number of revertants per plate, Mean ± SD [5, 15]: 14 ± 5
MI (mutagenicity index) (Vibrio harveyi BB7 [6]; mutagenic if MI above 2.0): 1.2
Number of revertants per plate, Mean ± SD (Vibrio harveyi BB7 [6]; mutagenicity): 15 ± 2
MI (mutagenicity index) (Vibrio harveyi BB7X [7]; mutagenic if MI above 2.0): 1.2
Number of revertants per plate, Mean ± SD (Vibrio harveyi BB7X [7]; mutagenicity): 27 ± 2
MI (mutagenicity index) (Vibrio harveyi BB7M [8]; mutagenic if MI above 2.0): 1.3
Number of revertants per plate, Mean ± SD (Vibrio harveyi BB7M [8]; mutagenicity): 36 ± 9
Number of revertants per plate, Mean ± SD (Vibrio harveyi BB7X [9]; [14]): 35 ± 6
% inhibition of NQNO mutagenicity (Vibrio harveyi BB7X [9]): 68%
MI (mutagenicity index) (Vibrio harveyi BB7XM [10]; mutagenic if MI above 2.0): 1.6
Number of revertants per plate, Mean ± SD (Vibrio harveyi BB7XM [10]; mutagenicity): 53 ± 8
Number of revertants per plate, Mean ± SD (Vibrio harveyi BB7M [11]; [14]): 45 ± 10
% inhibition of NQNO mutagenicity (Vibrio harveyi BB7M [11]): 54%
% inhibition of NQNO mutagenicity [12, 16]: 92%
% inhibition of NQNO mutagenicity [12, 17]: 91%
Number of revertants per plate, Mean ± SD [12, 16]: 7 ± 2
Number of revertants per plate, Mean ± SD [12, 17]: 9 ± 4
biotransformation / detectable metabolites in Cunninghamella model (in words) (Cunninghamella strains): did not undergo any biotransformation; also recorded: None of the three Cunninghamella strains evaluated generated detectable metabolites
% inhibition of NQNO mutagenicity (Vibrio harveyi BB7 [13]; BB7, compound 40 ng/mL + NQNO 40 ng/mL): 38%
Number of revertants per plate, Mean ± SD (Vibrio harveyi BB7 [13]; antimutagenicity, BB7, compound 40 ng/mL + NQNO 40 ng/mL, NQNO line = NQNO as a single compound): 34 ± 7
chemopreventive (antimutagenic) effect, class (Vibrio harveyi BB7 [13]; wild BB7 strain, against NQNO): moderate or a close to moderate

COc1nc2c(c(=O)n(C)c(=O)n2C)n1CCCC(=O)NCc1ccccc1O [3-M2]
% of compound/metabolite in C. echinulata [1]: 1.6%

COc1nc2c(c(=O)n(C)c(=O)n2C)n1CCCC(=O)NCc1ccc(O)cc1 [3-M4]
% of compound/metabolite in C. blakesleeana [2]: – – – 4.6%
% of compound/metabolite in C. elegans [3]: – – – 0.6%
% of compound/metabolite in C. echinulata [1]: 4.2%

COc1nc2c(c(=O)n(C)c(=O)n2C)n1CCCC(N)=O [3-M1]
% content among metabolites (rat liver microsomes): 100%
% of compound/metabolite in C. echinulata [1]: 1.5%
